Assay results reported in patent publication US20070027175A1, “Antineoplastic activities of ellipticine and its derivatives” (priority 2005, published 2007).

What was measured:
Type in all cases: cell-based, human
[1] = tested on: 12 myeloma cell lines (Ark, BW288, CAG, Delta47, DF15, JJN3, kms11, L363, opm2, RPMI8226, U266 and XG1); assay: Comparative study with existing anti-myeloma drugs (CellTiter-Glo); conditions: 0.2 μM; in 5 days
Description: The results obtained from these controls are pooled together in the figure (●). The dose of each compound was set […].
Comparative study of NSC 338258 with existing anti-myeloma drugs Myeloma cell lines were exposed to NSC 338258 and existing anti myeloma drugs, Adriamycin® (Doxorubicin Hydrochloride) and Etoposide (VP-16-213) in ninety six well culture plates. The concentration of each compound was set […]. […] The cell growth was near zero in the following days (day 4 onwards; FIG. 6). It was also observed that 12 myeloma cell lines (Ark, BW288, CAG, Delta47, DF15, JJN3, kms11, L363, opm2, RPMI8226, U266 and XG1) responded to the same dosage (0.2 μM) of NSC 338258, VP-16-213 and Adriamycin in 5 days.

8226/Dox1V cells = assay: Drug resistance and cytotoxicity MTT assay, 8226/Dox1V
Experimental: (§1) FIGS. 13A-13B show dose response of RPMI 8226 and 8226/Dox1V myeloma cells to EPED3 (FIG. 13A) or Dox (FIG. 13B). Cells were incubated for 96 hours with drug concentrations as indicated and analyzed by MTT assays; linear regression analysis was used to determine the IC50 for each drug (EPED3, FIG. 13A; Dox, FIG. 13B) and each cell line (RPMI8226, squares; 8226/Dox1V, circles). Data are presented as the mean of four independent experiments.
The 8226/Dox1V cell line was established by chronic exposure to Dox in presence of P-glycoprotein inhibitor, verapamil and was characterized by reduced expression and activity of topo II (Futscher et al., 1993).
(§2) The 8226/Dox1V and its parental line, RPMI 8226, cells were plated in 96-well plates at 10,000 cells/well and incubated with serial dilutions of EPED3 or Dox, as previously described (Landowski et al., 1999). After 96 hours incubation at 37° C., MTT was added to each well at a final concentration of 20 μg/ml and incubated an additional 4 hours. Plates were centrifuged and the media replaced with 0.1 ml DMSO to solublize the formazan complex. Optical density was measured at 540 nm using a Bio-Tek microplate spectrophotometer. IC50 values were calculated by linear regression analysis (Origins® Software Technologies, Inc.) of the log-linear plot for percent survival versus log drug concentration.
In drug resistance studies, the efficacy of EPED3 with 8226/Dox1V cells and the parental line, RPMI 8226 cells was investigated. Both cell lines were treated with either EPED3 or Dox, and the MTT assays were used to assess cell growth. Linear regression analysis of 96-hour dose-response curves was used to compare cytotoxicity of EPED3 in 8226/Dox1V and RPMI 8226 cell lines.

RPMI 8226 cells = assay: Drug resistance and cytotoxicity MTT assay, RPMI 8226; conditions: Homo sapiens, 96 hours
Experimental: as §1, §2
In drug resistance studies, the efficacy of EPED3 with 8226/Dox1V cells and the parental line, RPMI 8226 cells was investigated. Both cell lines were treated with either EPED3 or Dox, and the MTT assays were used to assess cell growth. […]

COc1cccc2c1C(=O)c1c(O)c3c(c(O)c1C2=O)C[C@@](O)(C(=O)CO)C[C@@H]3O[C@H]1C[C@H](N)[C@H](O)[C@H](C)O1 [Dox, Doxorubicin, reference compound]
response of 12 myeloma cell lines [1]: responded
IC50 (8226/Dox1V cells; Homo sapiens, 8226/Dox1V, 96 hours): 294 nM
resistance of 8226/Dox1V versus parental RPMI 8226 (8226/Dox1V cells; ratio of IC50, 96 hours): 7.3 fold
IC50 (RPMI 8226 cells): 40 nM
